Results taken from patent publication US11691972B2, “Compounds for targeted degradation of BRD9” (C4 Therapeutics, Inc., priority 2020, dated 2023).

Target: T1, BRD9 (Homo sapiens, UniProt Q9H8M2)
T1 sequence (Q9H8M2 1-597): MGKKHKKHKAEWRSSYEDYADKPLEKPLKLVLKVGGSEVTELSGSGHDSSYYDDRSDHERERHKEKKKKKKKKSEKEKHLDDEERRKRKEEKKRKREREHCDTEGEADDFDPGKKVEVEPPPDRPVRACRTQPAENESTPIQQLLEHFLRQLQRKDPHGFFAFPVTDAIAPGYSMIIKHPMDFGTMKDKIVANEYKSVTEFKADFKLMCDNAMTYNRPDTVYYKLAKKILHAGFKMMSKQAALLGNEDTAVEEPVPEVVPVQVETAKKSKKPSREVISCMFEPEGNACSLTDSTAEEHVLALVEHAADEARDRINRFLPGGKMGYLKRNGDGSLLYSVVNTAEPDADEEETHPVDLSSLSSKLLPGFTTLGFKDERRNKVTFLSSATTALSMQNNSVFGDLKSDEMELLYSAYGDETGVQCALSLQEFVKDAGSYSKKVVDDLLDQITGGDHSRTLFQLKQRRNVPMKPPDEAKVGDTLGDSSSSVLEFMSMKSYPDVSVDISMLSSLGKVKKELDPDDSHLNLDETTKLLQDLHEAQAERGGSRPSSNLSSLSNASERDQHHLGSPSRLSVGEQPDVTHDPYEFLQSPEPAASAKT
Experiment: HiBiT BRD9 degradation assay in 293T.166 (BRD9-HiBiT) cells
Format: cell-based
Set-up: endogenously expressing BRD9 with HiBiT fusion tag via CRISPR; host or cells: 293T.166 (BRD9-HiBiT), also expressing LgBiT ectopically
Settings: Table 1; 293T.166 cells, 2.0 hours; class symbols; read-out: HiBiT-Degradation 293T.166 BRD9 2.0 hours (DC50)
How it was run: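 293T.166 cells carrying endogenous CRISPR BRD9-HiBiT and expressing LgBiT treated 2 h at 37° C. with compounds, 11-point half-log titration from 10 μM in duplicate. Remaining BRD9 measured as lytic HiBiT luminescence; untreated cells as negative control, no-reagent wells as positive control.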

| SMILES | DC50 [nM] |
| --- | --- |
| COc1cc(-c2cn(C)c(=O)c(C)c2C)cc(Cl)c1CN1CCC(N2CCN(c3ccc(NC4CCC(=O)NC4=O)nc3)CC2)C(F)(F)C1 (centres unmarked) [Compound 196] | < 100 |
| COc1cc(-c2cn(C)c(=O)c(C)c2C)cc(Cl)c1CN1CCC(C2CCN(c3ccc(NC4CCC(=O)NC4=O)cc3F)CC2)C(F)(F)C1 (centres unmarked) [Compound 197, 3-[4-[4-[1-[[2-chloro-6-methoxy-4-(1,4,5-trimethyl-6-oxo-3-pyridyl)phenyl]methyl]-3,3-difluoro-4-piperidyl]-1-piperidyl]-3-fluoro-anilino]piperidine-2,6-dione] | < 100 |
| COc1cc(-c2cn(C)c(=O)c3ccccc23)cc(Cl)c1CN1CCC(N2CCC(c3ccc(NC4CCC(=O)NC4=O)cc3F)CC2)C(F)(F)C1 (centres unmarked) [Compound 202] | < 100 |
| COc1cc(-c2cn(C)c(=O)c3[nH]ncc23)cc(OC)c1CNc1ccc(CC2CCN(c3ccc(NC4CCC(=O)NC4=O)cc3)CC2)cc1 (centres unmarked) [Compound 205, 3-[4-[4-[[4-[[2,6-dimethoxy-4-(6-methyl-7-oxo-1H-pyrazolo[3,4-c]pyridin-4-yl)phenyl]methylamino]phenyl]methyl]-1-piperidyl]anilino]piperidine-2,6-dione] | < 100 |
| COc1cc(-c2cn(C)c(=O)c(C)c2C)cc(Cl)c1C(=O)N1CCC(C2CCN(c3ccc(NC4CCC(=O)NC4=O)cc3F)CC2)CC1 (centres unmarked) [Compound 208, 3-[4-[4-[1-[2-chloro-6-methoxy-4-(1,4,5-trimethyl-6-oxo-3-pyridyl)benzoyl]-4-piperidyl]-1-piperidyl]-3-fluoro-anilino]piperidine-2,6-dione] | < 100 |
| Cn1cc(-c2ccc(C(=O)N3CCC(C4CCN(c5ccc(NC6CCC(=O)NC6=O)cc5F)CC4)CC3)c(OC(F)(F)F)c2)c2ccncc2c1=O (centres unmarked) [Compound 211] | < 100 |
| COc1cc(-c2cn(C)c(=O)c3cnccc23)cc(F)c1C(=O)N1CCC(C2CCN(c3ccc(NC4CCC(=O)NC4=O)cc3F)CC2)CC1 (centres unmarked) [Compound 215] | < 100 |
| COc1cc(-c2cn(C)c(=O)c3[nH]ncc23)cc(Cl)c1C(=O)N1CCC(C2CCN(c3ccc(NC4CCC(=O)NC4=O)cc3F)CC2)CC1 (centres unmarked) [Compound 216] | < 100 |
| COc1cc(-c2cn(C)c(=O)c3[nH]ncc23)cc(Cl)c1C(=O)N1CCC(C2CCN(c3ccc(NC4CCC(=O)NC4=O)cn3)CC2)CC1 (centres unmarked) [Compound 220] | < 100 |
| COc1cc(-c2cn(C)c(=O)c3cnccc23)cc(Cl)c1C(=O)N1CCC(C2CCN(c3ccc(NC4CCC(=O)NC4=O)nc3)CC2)CC1 (centres unmarked) [Compound 221] | < 100 |
| COc1cc(-c2cn(C)c(=O)c3cnccc23)cc(OC)c1C(=O)N1CCC(N2CCN(c3ccc(NC4CCC(=O)NC4=O)cc3F)CC2)C(F)(F)C1 (centres unmarked) [Compound 225] | < 100 |
| COc1cc(-c2cn(C)c(=O)c3cnccc23)cc(F)c1C(=O)N1CCC(N2CCN(c3ccc(NC4CCC(=O)NC4=O)cc3F)CC2)C(F)(F)C1 (centres unmarked) [Compound 226] | < 100 |
| Cn1cc(-c2ccc(C(=O)N3CCC(N4CCN(c5ccc(NC6CCC(=O)NC6=O)cc5F)CC4)C(F)(F)C3)c(OC(F)(F)F)c2)c2ccncc2c1=O (centres unmarked) [Compound 227] | < 100 |
| COc1cc(-c2cn(C)c(=O)c3cnccc23)cc(Cl)c1C(=O)N1CCC(N2CCC(c3ccc(NC4CCC(=O)NC4=O)cc3)C(F)(F)C2)CC1 (centres unmarked) [Compound 228] | < 100 |
| COc1cc(-c2cn(C)c(=O)c3cnccc23)cc(Cl)c1CN1CCC(N2CCN(c3ccc(OC4CCC(=O)NC4=O)cc3F)CC2)C(F)(F)C1 (centres unmarked) [Compound 230, 3-[4-[4-[1-[[2-chloro-6-methoxy-4-(2-methyl-1-oxo-2,7-naphthyridin-4-yl)phenyl]methyl]-3,3-difluoro-4-piperidyl]piperazin-1-yl]-3-fluoro-phenoxy]piperidine-2,6-dione] | < 100 |
| COc1cc(-c2cn(C)c(=O)c3cnccc23)cc(OC)c1CN1CCc2cc(C3CCN(c4ccc(NC5CCC(=O)NC5=O)cc4C(F)(F)F)CC3)ccc2C1 (centres unmarked) [Compound 231, 3-[4-[4-[2-[[2,6-dimethoxy-4-(2-methyl-1-oxo-2,7-naphthyridin-4-yl)phenyl]methyl]-3,4-dihydro-1H-isoquinolin-6-yl]-1-piperidyl]-3-(trifluoromethyl)anilino]piperidine-2,6-dione] | < 100 |
| COc1cc(-c2cn(C)c(=O)c3[nH]ncc23)cc(Cl)c1C(=O)N1CCC(CC(=O)N2CCC(c3ccc(NC4CCC(=O)NC4=O)cc3)CC2)CC1 (centres unmarked) [Compound 233] | < 100 |
| COc1cc(-c2cn(C)c(=O)c3cnccc23)cc(OC)c1C(=O)N1Cc2cccc(CC3CCN(c4ccc(NC5CCC(=O)NC5=O)cc4F)CC3)c2C(F)(F)C1 (centres unmarked) [Compound 234] | < 100 |
| COc1cc(-c2cn(C)c(=O)c3cnccc23)cc(Cl)c1C(=O)N1CCc2c(CC3CCN(c4ccc(NC5CCC(=O)NC5=O)cc4F)CC3)cccc2C1 (centres unmarked) [Compound 235] | < 100 |
| COc1cc(-c2cn(C)c(=O)c3cnccc23)cc(Cl)c1C(=O)N1CCc2c(CN3CCC(c4ccc(NC5CCC(=O)NC5=O)cc4)C(F)(F)C3)cccc2C1 (centres unmarked) [Compound 236] | < 100 |

Other lines, results leading:

| DC50 [nM] | SMILES |
| --- | --- |
| < 100 | COc1cc(-c2cn(C)c(=O)c(C)c2C)cc(OC)c1CN1CCC(C2CCN(c3ccc(NC4CCC(=O)NC4=O)cc3F)CC2)C(F)(F)C1 (centres unmarked) [Compound 198] |
| < 100 | COc1cc(-c2cn(C)c(=O)c3cnccc23)cc(Cl)c1CN1CCC(C2CCN(c3ccc(NC4CCC(=O)NC4=O)cc3F)CC2)C(F)(F)C1 (centres unmarked) [Compound 199] |
| < 100 | COc1cc(-c2cn(C)c(=O)c3cnccc23)cc(Cl)c1CN1CCC(C2CCN(c3ccc(NC4CCC(=O)NC4=O)cc3Cl)CC2)C(F)(F)C1 (centres unmarked) [Compound 200] |
| < 100 | COc1cc(-c2cn(C)c(=O)c3cnccc23)cc(Cl)c1CN1CCC(N2CCC(c3ccc(NC4CCC(=O)NC4=O)cc3F)CC2)C(F)(F)C1 (centres unmarked) [Compound 201] |
| < 100 | COc1cc(-c2cn(C)c(=O)c3[nH]ncc23)cc(OC)c1CN1CCc2cc(N3CCC(c4ccc(NC5CCC(=O)NC5=O)cc4)CC3)ccc2C1 (centres unmarked) [Compound 206, 3-[4-[1-[2-[[2,6-dimethoxy-4-(6-methyl-7-oxo-1H-pyrazolo[3,4-c]pyridin-4-yl)phenyl]methyl]-3,4-dihydro-1H-isoquinolin-6-yl]-4-piperidyl]anilino]piperidine-2,6-dione] |
| < 100 | COc1cc(-c2cn(C)c(=O)c3[nH]ncc23)cc(OC)c1Cc1ccc(CC(=O)N2CCC(c3ccc(NC4CCC(=O)NC4=O)cc3)CC2)cc1 (centres unmarked) [Compound 207, 3-[4-[1-[2-[4-[[2,6-dimethoxy-4-(6-methyl-7-oxo-1H-pyrazolo[3,4-c]pyridin-4-yl)phenyl]methyl]phenyl]acetyl]-4-piperidyl]anilino]piperidine-2,6-dione] |
| < 100 | COc1cc(-c2cn(C)c(=O)c3cnccc23)cc(Cl)c1C(=O)N1CCC(C2CCN(c3ccc(NC4CCC(=O)NC4=O)cc3F)CC2)CC1 (centres unmarked) [Compound 209] |
| < 100 | Cc1c(-c2ccc(C(=O)N3CCC(C4CCN(c5ccc(NC6CCC(=O)NC6=O)cc5F)CC4)CC3)c(OC(F)(F)F)c2)cn(C)c(=O)c1C (centres unmarked) [Compound 212, 3-[3-fluoro-4-[4-[1-[2-(trifluoromethoxy)-4-(1,4,5-trimethyl-6-oxo-3-pyridyl)benzoyl]-4-piperidyl]-1-piperidyl]anilino]piperidine-2,6-dione] |
| < 100 | Cc1c(-c2ccc(C(=O)N3CCC(C4CCN(c5ccc(NC6CCC(=O)NC6=O)cc5F)CC4)CC3)c3[nH]ccc23)cn(C)c(=O)c1C (centres unmarked) [Compound 217] |
| < 100 | COc1cc(-c2cn(C)c(=O)c(C)c2C)cc(Cl)c1C(=O)N1CCC(C2CCN(c3ccc(NC4CCC(=O)NC4=O)cn3)CC2)CC1 (centres unmarked) [Compound 218, 3-[[6-[4-[1-[2-chloro-6-methoxy-4-(1,4,5-trimethyl-6-oxo-3-pyridyl)benzoyl]-4-piperidyl]-1-piperidyl]-3-pyridyl]amino]piperidine-2,6-dione] |
| < 100 | COc1cc(-c2cn(C)c(=O)c3[nH]ncc23)cc(Cl)c1C(=O)N1CCC(C2CCN(c3ccc(NC4CCC(=O)NC4=O)nc3)CC2)CC1 (centres unmarked) [Compound 222] |
| < 100 | Cc1c(-c2ccc(C(=O)N3CCC(N4CCN(c5ccc(NC6CCC(=O)NC6=O)cc5F)CC4)C(F)(F)C3)c(OC(F)(F)F)c2)cn(C)c(=O)c1C (centres unmarked) [Compound 223] |
| < 100 | COc1cc(-c2cn(C)c(=O)c3cnccc23)cc(Cl)c1C(=O)N1CCC(N2CCN(c3ccc(NC4CCC(=O)NC4=O)cc3F)CC2)C(F)(F)C1 (centres unmarked) [Compound 224] |
| < 100 | COc1cc(-c2cn(C)c(=O)c(C)c2C)cc(Cl)c1C(=O)N1CCC(N2CCC(c3ccc(NC4CCC(=O)NC4=O)cc3)C(F)(F)C2)CC1 (centres unmarked) [Compound 229] |
| < 100 | COc1cc(-c2cn(C)c(=O)c3cnccc23)cc(Cl)c1C(=O)N1CCC(CC(=O)N2CCC(c3ccc(NC4CCC(=O)NC4=O)cc3)CC2)CC1 (centres unmarked) [Compound 232, 3-[4-[1-[2-[1-[2-chloro-6-methoxy-4-(2-methyl-1-oxo-2,7-naphthyridin-4-yl)benzoyl]-4-piperidyl]acetyl]-4-piperidyl]anilino]piperidine-2,6-dione] |
